Results published in patent US20180162845A1, “ENHANCER OF ZESTE HOMOLOG 2 INHIBITORS” (GLAXOSMITHKLINE INTELLECTUAL PROPERTY (NO.2) LIMITED, priority 2015, published 2018).

These molecules were tested against T1, EZH2 within the PRC2 complex (Homo sapiens, UniProt Q15910) (assay: EZH2 methyltransferase scintillation proximity assay (SPA)). Details: Human PRC2 5 member complex (FLAG-EZH2, EED, SUZ12, RbAp48, AEBP2), biotinylated histone H3K27 peptide, 3H-SAM, 60 min room temperature; ≤10 nM approaches limit of detection.
T1 construct: FLAG; made in house; host or cells: Sf9 cells
T1 sequence (Q15910 whole entry): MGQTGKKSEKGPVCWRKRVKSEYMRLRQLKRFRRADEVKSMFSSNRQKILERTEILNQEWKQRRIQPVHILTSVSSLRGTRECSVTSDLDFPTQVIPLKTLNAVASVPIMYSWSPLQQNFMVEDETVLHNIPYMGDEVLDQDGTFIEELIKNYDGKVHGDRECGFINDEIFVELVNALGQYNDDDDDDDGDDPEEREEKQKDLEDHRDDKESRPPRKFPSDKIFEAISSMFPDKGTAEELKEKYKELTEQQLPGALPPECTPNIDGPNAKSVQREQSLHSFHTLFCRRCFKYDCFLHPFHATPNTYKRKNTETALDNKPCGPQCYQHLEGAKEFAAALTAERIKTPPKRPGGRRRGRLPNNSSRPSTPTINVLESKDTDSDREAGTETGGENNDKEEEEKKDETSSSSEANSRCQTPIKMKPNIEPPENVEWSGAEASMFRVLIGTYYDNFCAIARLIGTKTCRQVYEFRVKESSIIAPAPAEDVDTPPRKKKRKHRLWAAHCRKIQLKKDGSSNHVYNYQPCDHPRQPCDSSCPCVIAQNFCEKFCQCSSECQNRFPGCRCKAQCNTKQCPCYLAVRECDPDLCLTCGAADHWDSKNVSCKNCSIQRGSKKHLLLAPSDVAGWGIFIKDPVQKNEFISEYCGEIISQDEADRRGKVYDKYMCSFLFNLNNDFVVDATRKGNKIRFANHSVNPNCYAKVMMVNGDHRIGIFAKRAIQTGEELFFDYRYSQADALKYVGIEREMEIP
T1 sequence (O75530 whole entry partner): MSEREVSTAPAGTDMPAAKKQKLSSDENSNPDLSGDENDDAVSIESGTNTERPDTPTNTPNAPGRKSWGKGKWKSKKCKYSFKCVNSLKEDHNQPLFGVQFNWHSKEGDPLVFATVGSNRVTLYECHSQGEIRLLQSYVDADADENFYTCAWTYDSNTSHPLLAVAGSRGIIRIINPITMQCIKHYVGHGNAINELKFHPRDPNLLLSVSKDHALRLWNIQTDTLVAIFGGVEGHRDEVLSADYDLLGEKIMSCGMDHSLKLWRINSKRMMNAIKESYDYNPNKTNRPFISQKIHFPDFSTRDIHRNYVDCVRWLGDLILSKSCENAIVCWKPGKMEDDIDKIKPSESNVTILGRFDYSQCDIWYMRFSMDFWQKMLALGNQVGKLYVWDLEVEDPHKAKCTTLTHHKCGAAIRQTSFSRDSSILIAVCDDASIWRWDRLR
T1 sequence (Q15022 whole entry partner): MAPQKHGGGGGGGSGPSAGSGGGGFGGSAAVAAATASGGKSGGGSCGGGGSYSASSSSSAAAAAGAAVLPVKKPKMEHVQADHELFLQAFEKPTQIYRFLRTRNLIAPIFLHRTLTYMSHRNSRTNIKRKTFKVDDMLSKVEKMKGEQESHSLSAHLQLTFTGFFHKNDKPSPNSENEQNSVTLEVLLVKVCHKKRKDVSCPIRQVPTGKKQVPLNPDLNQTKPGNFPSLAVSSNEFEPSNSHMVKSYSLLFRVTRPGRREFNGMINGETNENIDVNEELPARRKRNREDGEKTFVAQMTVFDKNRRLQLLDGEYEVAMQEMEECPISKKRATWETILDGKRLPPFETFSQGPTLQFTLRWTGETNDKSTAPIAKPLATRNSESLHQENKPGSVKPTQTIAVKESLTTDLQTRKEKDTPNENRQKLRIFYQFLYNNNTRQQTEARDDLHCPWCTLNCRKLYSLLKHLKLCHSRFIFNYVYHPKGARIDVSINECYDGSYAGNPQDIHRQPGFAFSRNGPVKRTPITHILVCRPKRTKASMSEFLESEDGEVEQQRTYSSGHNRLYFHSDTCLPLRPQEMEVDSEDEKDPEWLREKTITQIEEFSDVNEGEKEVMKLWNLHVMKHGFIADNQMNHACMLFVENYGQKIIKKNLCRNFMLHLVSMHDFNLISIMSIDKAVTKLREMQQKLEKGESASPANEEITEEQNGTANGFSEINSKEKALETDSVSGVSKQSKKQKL
T1 sequence (Q09028 whole entry partner): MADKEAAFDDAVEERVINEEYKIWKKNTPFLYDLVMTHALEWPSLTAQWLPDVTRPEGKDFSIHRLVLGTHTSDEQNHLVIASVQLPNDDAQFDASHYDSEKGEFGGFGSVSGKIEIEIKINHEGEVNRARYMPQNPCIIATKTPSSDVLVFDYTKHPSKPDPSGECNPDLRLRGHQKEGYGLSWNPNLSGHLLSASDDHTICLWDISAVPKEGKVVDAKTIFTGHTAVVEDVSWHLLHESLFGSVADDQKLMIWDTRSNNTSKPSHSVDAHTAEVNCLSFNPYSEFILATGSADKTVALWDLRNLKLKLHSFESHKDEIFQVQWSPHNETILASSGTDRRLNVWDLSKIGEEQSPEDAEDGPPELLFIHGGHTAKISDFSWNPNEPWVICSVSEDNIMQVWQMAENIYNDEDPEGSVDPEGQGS
T1 sequence (Q6ZN18 whole entry partner): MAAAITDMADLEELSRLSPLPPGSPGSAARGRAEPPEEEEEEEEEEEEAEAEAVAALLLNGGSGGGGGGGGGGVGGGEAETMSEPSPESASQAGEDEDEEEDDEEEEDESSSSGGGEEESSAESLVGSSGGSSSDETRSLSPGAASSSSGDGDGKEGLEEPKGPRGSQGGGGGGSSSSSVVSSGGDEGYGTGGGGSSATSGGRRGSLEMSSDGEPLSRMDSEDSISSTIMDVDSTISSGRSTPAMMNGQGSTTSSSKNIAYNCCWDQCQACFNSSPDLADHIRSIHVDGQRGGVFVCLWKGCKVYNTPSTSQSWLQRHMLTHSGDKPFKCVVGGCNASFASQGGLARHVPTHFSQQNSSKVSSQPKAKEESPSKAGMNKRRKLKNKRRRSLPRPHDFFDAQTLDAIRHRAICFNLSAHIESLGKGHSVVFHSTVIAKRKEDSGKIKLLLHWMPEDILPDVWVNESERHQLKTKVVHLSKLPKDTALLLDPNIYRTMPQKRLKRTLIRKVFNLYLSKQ
Format: biochemical
Procedure: Compounds contained herein were evaluated for their ability to inhibit the methyltransferase activity of EZH2 within the PRC2 complex. Human PRC2 complex was prepared by co-expressing each of the 5 member proteins (FLAG-EZH2, EED, SUZ12, RbAp48, AEBP2) in Sf9 cells followed by co-purification. Enzyme activity was measured in a scintillation proximity assay (SPA) where a tritiated methyl group is transferred from 3H-SAM to a lysine residue on a biotinylated, unmethylated peptide substrate derived from histone H3. The peptides were captured on streptavidin-coated SPA beads and the resulting signal was read on a ViewLux plate reader.
• 1. Prepare 10 mM stock of compounds from solid in 100% DMSO. • 2. Set up an 11-point serial dilution (1:4 dilution, top concentration 10 mM) in 100% DMSO for each test compound in a 384 well plate leaving columns 6 and 18 for DMSO controls. • 3. Dispense 10 nL of compound from the dilution plate into reaction plates (Corning, 384-well polystyrene NBS, Cat# 3673).
• 1. 1× Base Buffer, 50 mM Tris-HCl, pH 8, 2 mM MgCl2: Per 1 L of base buffer, combine 1 M Tris-HCl, pH 8 (50 mL), 1 M MgCl2 (2 mL), and distilled water (948 mL). • 2. 1× Assay Buffer: Per 10 mL of 1× Assay Buffer, combine 1× Base Buffer (9.96 mL), 1 M DTT (40 uL), and 10% Tween-20 (1 uL) to provide a final concentration of 50 mM Tris-HCl, pH 8, 2 mM MgCl2, 4 mM DTT, 0.001% Tween-20. • 3. 2× Enzyme Solution: Per 10 mL of 2× Enzyme Solution, combine 1× Assay Buffer (9.99 mL) and 3.24 uM EZH2 5 member complex (6.17 uL) to provide a final enzyme concentration of 1 nM. • 4. SPA Bead Solution: Per 1 mL of SPA Bead Solution, combine Streptavidin coated SPA beads (PerkinElmer, Cat #RPNQ0261, 40 mg) and 1× Assay Buffer (1 mL) to provide a working concentration of 40 mg/mL. • 5. 2× Substrate Solution: Per 10 mL of 2× Substrate Solution, combine 40 mg/mL SPA Bead Solution (375 uL), 1 mM biotinylated histone H3K27 peptide (200 uL), 12.5 uM 3H-SAM (240 uL; 1 mCi/mL), 1 mM cold SAM (57 uL), and 1× Assay Buffer (9.13 mL) to provide a final concentration of 0.75 mg/mL SPA Bead Solution, 10 uM biotinylated histone H3K27 peptide, 0.15 uM 3H-SAM (˜12 uCi/mL 3H-SAM), and 2.85 uM cold SAM. • 6. 2.67× Quench Solution: Per 10 mL of 2.67× Quench Solution, combine 1 Assay Buffer (9.73 mL) and 10 mM cold SAM (267 uL) to provide a final concentration of 100 uM cold SAM.
• 1. Stamp 10 nL/well of 1000× Compound to test wells (as noted above). • 2. Stamp 10 nL/well of 100% DMSO to columns 6 & 18 (high and low controls, respectively).
• 1. Dispense 5 uL/well of 1× Assay Buffer to column 18 (low control reactions). • 2. Dispense 5 uL/well of 2× Substrate Solution to columns 1-24 (note: substrate solution should be mixed to ensure homogeneous bead suspension before dispensing into matrix reservoir). • 3. Dispense 5 uL/well of 2× Enzyme Solution to columns 1-17, 19-24. • 4. Incubate the reaction for 60 min at room temperature.
• 1. Dispense 6 uL/well of the 2.67× Quench Solution to columns 1-24. • 2. Seal assay plates and spin for ˜1 min at 500 rpm. • 3. Dark adapt plates in the ViewLux instrument for 15-60 min. Read plates • 1. Read the assay plates on the Viewlux Plate Reader utilizing the 613 nm emission filter or clear filter (300 s exposure). • Reagent addition can be done manually or with automated liquid handler.
Percent inhibition was calculated relative to the DMSO control for each compound concentration and the resulting values were fit using standard IC50 fitting parameters within the ABASE data fitting software package.

Question: `CC[C@@H](c1sc2c(c1C)C(=O)N(Cc1c(C)cc(C)[nH]c1=O)CC2)C1CCN(Cc2ccccn2)CC1` [Example 1, (R)-5-((4,6-dimethyl-2-oxo-1,2-dihydropyridin-3-yl)methyl)-3-methyl-2-(1-(1-(pyridin-2-ylmethyl)piperidin-4-yl)propyl)-6,7-dihydrothieno[3,2-c]pyridin-4(5H)-one] was tested. Which IC50 did it give?
Answer: ≤ 10 nM

Question: Which IC50 does the source give for `CCC(=C1CCN(Cc2ccnc(OC)c2)CC1)c1scc(C(=O)NCc2c(C)cc(C)[nH]c2=O)c1C` [Example 5, N-((4,6-Dimethyl-2-oxo-1,2-dihydropyridin-3-yl)methyl)-5-(1-(1-((2-methoxypyridin-4-yl)methyl)piperidin-4-ylidene)propyl)-4-methylthiophene-3-carboxamide] here?
Answer: ≤ 10 nM

Question: With `Cc1cc(C)c(CN2CCCc3sc([C@H](C)C4CCN(Cc5ccc(Cl)cn5)CC4)c(C)c3C2=O)c(=O)[nH]1` [Example 8] as the molecule, how does the IC50 read?
Answer: ≤ 10 nM

Question: How did the IC50 turn out when `COc1cc(CN2CCC([C@@H](C)c3sc4c(c3C)C(=O)N(Cc3c(C)cc(C)[nH]c3=O)CCC4)CC2)ccn1` [Example 7, (R)-5-((4,6-Dimethyl-2-oxo-1,2-dihydropyridin-3-yl)methyl)-2-(1-(1-((2-methoxypyridin-4-yl)methyl)piperidin-4-yl)ethyl)-3-methyl-5,6,7,8-tetrahydro-4H-thieno[3,2-c]azepin-4-one] was run?
Answer: ≤ 10 nM

Question: With `CC[C@@H](c1sc2c(c1C)C(=O)N(Cc1c(C)cc(C)[nH]c1=O)CC2)C1CCN(Cc2ccccc2)CC1` [Example 2, (R)-2-(1-(1-Benzylpiperidin-4-yl)propyl)-5-((4,6-dimethyl-2-oxo-1,2-dihydropyridin-3-yl)methyl)-3-methyl-6,7-dihydrothieno[3,2-c]pyridin-4(5H)-one] as the molecule, how does the IC50 read?
Answer: ≤ 10 nM

Question: For `CC[C@@H](c1sc2c(c1C)C(=O)N(Cc1c(C)cc(C)[nH]c1=O)CC2)C1CCN(Cc2ccc(Cl)cn2)CC1` [Example 4, (R)-2-(1-(1-((5-Chloropyridin-2-yl)methyl)piperidin-4-yl)propyl)-5-((4,6-dimethyl-2-oxo-1,2-dihydropyridin-3-yl)methyl)-3-methyl-6,7-dihydrothieno[3,2-c]pyridin-4(5H)-one], which IC50 is on record?
Answer: ≤ 10 nM

Question: `Cc1cccc(CN2CCC([C@@H](C)c3sc4c(c3C)C(=O)N(Cc3c(C)cc(C)[nH]c3=O)CCC4)CC2)n1` [Example 9, (R)-5-((4,6-Dimethyl-2-oxo-1,2-dihydropyridin-3-yl)methyl)-3-methyl-2-(1-(1-((6-methylpyridin-2-yl)methyl)piperidin-4-yl)ethyl)-5,6,7,8-tetrahydro-4H-thieno[3,2-c]azepin-4-one] was tested. Which IC50 did it give?
Answer: ≤ 10 nM

Question: `Cc1cc(C)c(CN2CCCc3sc([C@H](C)C4CCN(Cc5ccccn5)CC4)c(C)c3C2=O)c(=O)[nH]1` [Example 6, (R)-5-((4,6-Dimethyl-2-oxo-1,2-dihydropyridin-3-yl)methyl)-3-methyl-2-(1-(1-(pyridin-2-ylmethyl)piperidin-4-yl)ethyl)-5,6,7,8-tetrahydro-4H-thieno[3,2-c]azepin-4-one] was tested. Which IC50 did it give?
Answer: ≤ 10 nM

Question: For `CC[C@@H](c1sc2c(c1C)C(=O)N(Cc1c(C)cc(C)[nH]c1=O)CC2)C1CCN(Cc2ccncc2)CC1` [Example 3, (R)-5-((4,6-Dimethyl-2-oxo-1,2-dihydropyridin-3-yl)methyl)-3-methyl-2-(1-(1-(pyridin-4-ylmethyl)piperidin-4-yl)propyl)-6,7-dihydrothieno[3,2-c]pyridin-4(5H)-one], which IC50 is on record?
Answer: ≤ 10 nM

Question: For `COc1cc(CN2CCC([C@@H](C)c3sc4c(c3C)C(=O)N(Cc3c(C)cc(C)[nH]c3=O)CC4)CC2)ccn1` [Example 11, (R)-5-((4,6-Dimethyl-2-oxo-1,2-dihydropyridin-3-yl)methyl)-2-(1-(1-((2-methoxypyridin-4-yl)methyl)piperidin-4-yl)ethyl)-3-methyl-6,7-dihydrothieno[3,2-c]pyridin-4(5H)-one], which IC50 is on record?
Answer: ≤ 10 nM

Question: With `Cc1cc(C)c(CN2CCCc3sc([C@H](C)C4CCN(CC5(C)CCCCC5)CC4)c(C)c3C2=O)c(=O)[nH]1` [Example 14, (R)-5-((4,6-Dimethyl-2-oxo-1,2-dihydropyridin-3-yl)methyl)-3-methyl-2-(1-(1-((1-methylcyclohexyl)methyl)piperidin-4-yl)ethyl)-5,6,7,8-tetrahydro-4H-thieno[3,2-c]azepin-4-one] as the molecule, how does the IC50 read?
Answer: ≤ 10 nM

Question: How did the IC50 turn out when `Cc1cc(C)c(CN2CCCc3sc([C@H](C)C4CCN(Cc5ccccc5)CC4)c(C)c3C2=O)c(=O)[nH]1` [Example 10, (R)-2-(1-(1-Benzylpiperidin-4-yl)ethyl)-5-((4,6-dimethyl-2-oxo-1,2-dihydropyridin-3-yl)methyl)-3-methyl-5,6,7,8-tetrahydro-4H-thieno[3,2-c]azepin-4-one] was run?
Answer: ≤ 10 nM

Question: Which IC50 does the source give for `COc1cccc(CN2CCC([C@@H](C)c3sc4c(c3C)C(=O)N(Cc3c(C)cc(C)[nH]c3=O)CCC4)CC2)n1` [Example 12, (R)-5-((4,6-Dimethyl-2-oxo-1,2-dihydropyridin-3-yl)methyl)-2-(1-(1-((6-methoxypyridin-2-yl)methyl)piperidin-4-yl)ethyl)-3-methyl-5,6,7,8-tetrahydro-4H-thieno[3,2-c]azepin-4-one] here?
Answer: ≤ 10 nM

Question: Which IC50 does the source give for `Cc1cc(C)c(CN2CCCc3sc([C@H](C)C4CCN(CC5CCCCC5)CC4)c(C)c3C2=O)c(=O)[nH]1` [Example 13, (R)-2-(1-(1-(cyclohexylmethyl)piperidin-4-yl)ethyl)-5-((4,6-dimethyl-2-oxo-1,2-dihydropyridin-3-yl)methyl)-3-methyl-5,6,7,8-tetrahydro-4H-thieno[3,2-c]azepin-4-one] here?
Answer: ≤ 10 nM
